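Dose response: 5 concentrations. Exposure: 48 h. Format: 96-well plates. Endpoint: linear interpolation; highest concentration if not reached. Here, GI50 denotes the concentration required for 50% inhibition of growth. TGI denotes the concentration required for complete inhibition of growth.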
Legend:
Assay in all cases: DTP human tumour cell line panel, 48 h
[1] = test system: OVCAR-5 ovarian
[2] = test system: SW-620 colon
[3] = test system: RPMI-8226 leukemia
[4] = test system: SK-OV-3 ovarian
[5] = test system: HS 578T breast
[6] = test system: NCI-H226 lung
[7] = test system: LOX IMVI melanoma
[8] = test system: NCI-H460 lung
[9] = test system: KM12 colon
[10] = test system: UACC-257 melanoma
[11] = test system: HCT-15 colon
[12] = test system: SR leukemia
[13] = test system: SNB-75 CNS
[14] = test system: BT-549 breast
[15] = test system: OVCAR-3 ovarian
[16] = test system: IGROV1 ovarian
[17] = test system: EKVX NSCLC
[18] = test system: NCI-H522 lung
[19] = test system: K-562 leukemia
[20] = test system: HOP-62 NSCLC
[21] = test system: MCF7 breast
[22] = test system: CCRF-CEM leukemia
[23] = test system: UO-31 renal
[24] = test system: RXF 393 renal
[25] = test system: MOLT-4 leukemia
[26] = test system: HOP-92 NSCLC
[27] = test system: SF-268 CNS
[28] = test system: SK-MEL-2 melanoma
[29] = test system: COLO 205 colon
[30] = test system: HCT-116 colon
[31] = test system: UACC-62 melanoma
[32] = test system: HL-60(TB) leukemia
[33] = test system: SNB-19 CNS
[34] = test system: PC-3 prostate
[35] = test system: NCI-H23 lung
[36] = test system: HCC-2998 colon
[37] = test system: SF-539 CNS
[38] = test system: SN12C renal
[39] = test system: SK-MEL-5 melanoma
[40] = test system: TK-10 renal
[41] = test system: SF-295 CNS
[42] = test system: NCI/ADR-RES ovarian
[43] = test system: HT29 colon
[44] = test system: A498 renal
[45] = test system: CAKI-1 renal
[46] = test system: A549 NSCLC
[47] = test system: OVCAR-8 ovarian
[48] = test system: ACHN renal
[49] = test system: MDA-MB-231 breast
[50] = test system: SK-MEL-28 melanoma
[51] = test system: M14 melanoma
[52] = test system: MALME-3M melanoma
[53] = test system: T-47D breast
[54] = test system: U251 CNS
[55] = test system: DU-145 prostate
[56] = test system: OVCAR-4 ovarian
[57] = test system: 786-0 renal

## O=C1OCC2=C1C(c1cccc(F)c1)c1cc3c(cc1N2CCO)OCCO3 (configuration not stated)
[1]
  GI50: 541 nM
  TGI: > 50000 nM
[2]
  GI50: 186 nM
  TGI: > 50000 nM
[3]
  GI50: 207 nM
  TGI: > 50000 nM
[4]
  GI50: 260 nM
  TGI: > 50000 nM
[5]
  GI50: 179 nM
  TGI: 7160 nM
[6]
  GI50: 3180 nM
  TGI: > 50000 nM
[7]
  GI50: 265 nM
  TGI: > 50000 nM
[8]
  GI50: 187 nM
  TGI: > 50000 nM
[9]
  GI50: 172 nM
  TGI: > 50000 nM
[10]
  GI50: > 20000 nM
  TGI: > 50000 nM
[11]
  GI50: 193 nM
  TGI: > 50000 nM
[12]
  GI50: 78 nM
  TGI: > 50000 nM
[13]
  GI50: 113 nM
  TGI: 380 nM
[14]
  GI50: 417 nM
  TGI: 11400 nM
[15]
  GI50: 142 nM
[16]
  GI50: 333 nM
  TGI: > 50000 nM
[17]
  GI50: 306 nM
  TGI: > 50000 nM
[18]
  GI50: 41.8 nM
  TGI: 2580 nM
[19]
  GI50: 122 nM
  TGI: > 50000 nM
[20]
  GI50: 310 nM
  TGI: > 50000 nM
[21]
  GI50: 130 nM
  TGI: > 50000 nM
[22]
  GI50: 237 nM
  TGI: > 50000 nM
[23]
  GI50: 276 nM
  TGI: > 50000 nM
[24]
  GI50: 141 nM
  TGI: > 50000 nM
[25]
  GI50: 301 nM
  TGI: > 50000 nM
[26]
  GI50: 2070 nM
  TGI: > 50000 nM
[27]
  GI50: 381 nM
  TGI: > 50000 nM
[28]
  GI50: 276 nM
  TGI: > 50000 nM
[29]
  GI50: 204 nM
  TGI: 7430 nM
[30]
  GI50: 204 nM
  TGI: > 50000 nM
[31]
  GI50: 112 nM
  TGI: > 50000 nM
[32]
  GI50: 137 nM
  TGI: 387 nM
[33]
  GI50: 275 nM
  TGI: > 50000 nM
[34]
  GI50: 195 nM
  TGI: > 50000 nM
[35]
  GI50: 350 nM
  TGI: > 50000 nM
[36]
  GI50: 768 nM
  TGI: > 50000 nM
[37]
  GI50: 141 nM
  TGI: 831 nM
[38]
  GI50: 345 nM
  TGI: > 50000 nM
[39]
  GI50: 162 nM
[40]
  GI50: 363 nM
  TGI: > 50000 nM
[41]
  GI50: 134 nM
  TGI: > 50000 nM
[42]
  GI50: 208 nM
  TGI: > 50000 nM
[43]
  GI50: 178 nM
  TGI: > 50000 nM
[44]
  GI50: 111 nM
  TGI: 438 nM
[45]
  GI50: 144 nM
  TGI: > 50000 nM
[46]
  GI50: 320 nM
  TGI: > 50000 nM
[47]
  GI50: 244 nM
  TGI: > 50000 nM
[48]
  GI50: 386 nM
  TGI: > 50000 nM
[49]
  GI50: 320 nM
  TGI: > 20300 nM
[50]
  GI50: 1500 nM
  TGI: > 50000 nM
[51]
  GI50: 105 nM
  TGI: > 50000 nM
[52]
  GI50: 305 nM
  TGI: > 50000 nM
[53]
  GI50: 203 nM
  TGI: > 50000 nM
[54]
  GI50: 221 nM
  TGI: > 50000 nM
[55]
  GI50: 220 nM
  TGI: > 50000 nM
[56]
  GI50: 1970 nM
  TGI: > 50000 nM
[57]
  GI50: 208 nM
  TGI: > 50000 nM

Reference: PubChem BioAssay (NCI)
